According to paper PMC7661967, “Magnetic Resonance Molecular Imaging of Extradomain B Fibronectin Improves Imaging of Pancreatic Cancer Tumor Xenografts” (Frontiers in Oncology, 2020):
Several values for one entry are separate records, joined by “and”; a condition that tells them apart may be missing. Equal entries are not always repeated. Entries after “also recorded” stand apart in the source; their conditions may differ. No end group written: not given here.

How the values were obtained:
[1] = cited from earlier work
Source text: (§1) ZD2 targeted MRI contrast agents have been developed and tested for MRMI of EDB-FN in aggressive breast cancer and prostate cancer models ([15], [16], [20]). The targeted contrast agent ZD2-N3-Gd(HP-DO3A) (MT218) was developed by conjugating ZD2 peptide to a clinical macrocyclic contrast agent Gd(HP-DO3A) ([16], [20]). […] The ...

[2] = test system: aggressive breast and prostate cancers; conditions: cited from earlier work
Source text: as §1

[3] = Liver CNR in contrast-enhanced MRI; type: in vivo, nu/nu mice; conditions: for liver CNR, MT218 vs Gd(HP-DO3A): 0.1 mmol/kg, p > 0.05
Experimental: (§2) Flank tumor-bearing mice were anesthetized and a tail vein catheter inserted. MR image acquisition was performed on a 7T Biospin (Bruker, Billerica, MA) preclinical small animal scanner with a volume radiofrequency coil. Axial images were obtained using a multi-spin multi-echo (MSME) MRI sequence (500 ms TR, 8.1 ms TE, 90° FA, 4.50 cm × 4.50 cm FOV, 1.50 mm slice thickness, 16 slices, 2 averages, 200 × 200 matrix, 0.0225 × 0.0225 cm/pixel resolution). Contrast agents were injected at a dose of 0.1 mmol/kg (100 μL) via the tail vein catheter, followed by a saline flush. Images of the tumors were acquired before contrast and at various time points after contrast administration. Gd(HP-DO3A) was used as a control.
(§3) Mice bearing intrapancreatic tumors were anesthetized and a tail vein catheter was inserted. Image acquisition was performed on a MR Solutions 3T MRS 3000 scanner with a mouse radiofrequency coil. Axial images were obtained using a Fast Spin Echo (FSE) MRI sequence (305 ms TR, 11 ms TE, 90° FA, 4 cm × 4 cm FOV, 1 mm slice thickness, 10 slices, echo train length = 4, echo spacing = 11 ms, 4 averages, 256 × 256 matrix, 0.0156 × […] cm/pixel resolution) with respiratory gating. Images were acquired before contrast and at different time points after contrast injection at a dose of 0.1 mmol/kg (100 μL). For competitive binding experiments, a 5:1 molar ratio of free ZD2 peptide to MT218 was injected in mice bearing intrapancreatic BxPC3 tumor xenografts (n = 3) at a dose of 0.1 mmol MT218/kg (100 μL). Images obtained on the MR Solutions 3T scanner were normalized using the Surscalereader.exe (MR Solutions, Guildford, UK) program supplied.
Image files were exported and analyzed in Horus software. ROIs were drawn in the tumor, liver, kidney, and muscle. […] The contrast-to-noise ratio of the tumor (CNR) was calculated using the following equation, where σnoise is the standard deviation of intensities from an ROI drawn outside of the mouse body:
The contrast to noise ratio of the liver (CNR) was calculated using the following equation: […]

EDB fragment of FN = target: T1, EDB fragment of FN (Homo sapiens, UniProt P02751); experiment: Microscale thermophoresis binding affinity; conditions: MST
T1 construct: The EDB fragment of FN was expressed in E. coli; made in house; host or cells: E. coli
Experimental: The binding affinity of MT218 was determined with microscale thermophoresis (MST) using a Nanotemper Monolith NT.115 instrument (NanoTemper Technologies, Munich, Germany). The EDB fragment of FN was expressed in E. coli, purified, and labeled with amine-reactive dye NT-647. MT218 was dissolved into assay buffer (50 mM PBS w/0.05% Tween-20). This solution was further diluted using assay buffer to give a series of MT218 working solutions. Each MT218 working solution was then mixed with a fixed concentration of fluorescently labeled EDB fragment. The mixtures of MT218 and EDB were then loaded into standard capillaries, and MST measurements were performed at 25°C using 20–80% light-emitting diode power and 40% infrared-laser power at varying concentrations of MT218.

[4] = test system: PANC-1-GFP-Luc intrapancreatic tumor xenografts; experiment: MRMI of PANC-1-GFP-Luc intrapancreatic tumor xenografts (3T); type: in vivo, human cells in female nu/nu mice
Experimental: (§4) For flank xenograft models, 4 × 10^6 Capan-1 cells suspended in 100 μL of a 6 mg/mL Matrigel (Corning, Corning, NY) solution was injected subcutaneously into the flank of 8-week-old female nu/nu mice. The tumor bearing mice were imaged after tumor volumes exceeded 300 mm^3. For orthotopic intrapancreatic models, the pancreas of 4-week-old female nu/nu mice were surgically exposed via a ~10 mm incision in the left ventral abdomen and the application of gentle pressure to express the spleen and associated pancreatic tissue. 1 × 10^6 BxPC3-GFP-Luc or PANC-1-GFP-Luc cells suspended in 100 μL of a Matrigel solution (6 mg/mL) was injected into the pancreatic tissue using an insulin syringe with a 31G needle. Any leakage of cell suspension was lavaged with DPBS twice to prevent intraabdominal seeding PaCa cells. The peritoneal fascia was closed with absorbable stitches, and the dermis closed with stainless steel wound clips. Prior to imaging, growth of tumor was verified by bioluminescence imaging with intraperitoneal injection of d-luciferin on IVIS Spectrum system (Perkin Elmer, Waltham, MA).
as §3
(§5) Image files were exported and analyzed in Horus software. ROIs were drawn in the tumor, liver, kidney, and muscle. Muscle ROIs were taken from the muscle, with other structures (liver, kidney, tumor) identified after comparison with published images and comparison with anatomical landmarks or bioluminescent imaging. Pancreatic lesions were localized using the liver, kidney, and spleen as anatomical landmarks. […] Size of ROIs drawn for image analysis are summarized in Supplementary Table 1. The contrast-to-noise ratio of the tumor (CNR) was calculated using the following equation, where σnoise is the standard deviation of intensities from an ROI drawn outside of the mouse body:
(§6) CNR=Mean IntensityTumor-Mean IntensityMuscle/σnoise.
(§7) Image subtraction was performed on images adjusted to the same window and level in FIJI open-source software.
(§8) Image contrast was reported as fold enhancement of contrast to noise ratio of post-contrast images over pre-contrast images using Fold Enhancement = CNRpost/CNRpre. Statistical analysis of CNR was performed in Minitab Express (Minitab Inc., State College, PA). One-way ANOVA with Fisher Individual Tests for Differences of Means post-hoc testing was performed to determine statistical significance between >2 means (p < 0.05). Student's T test was used to determine statistical significance between 2 means (p < 0.05).

[5] = test system: BxPC3-GFP-Luc intrapancreatic tumor xenografts; experiment: MRMI of BxPC3-GFP-Luc intrapancreatic tumor xenografts (3T); type: in vivo, human cells in female nu/nu mice
Experimental: as §4, §3, §5, §6, §7, §8

[6] = Kidney CNR in contrast-enhanced MRI; type: in vivo, nu/nu mice; conditions: all tested mice, p > 0.05; BxPC3-GFP-Luc (n = 3) and PANC-1-GFP-Luc (n = 6) models
Experimental: as §2
Mice bearing intrapancreatic tumors were anesthetized and a tail vein catheter was inserted. Image acquisition was performed on a MR Solutions 3T MRS 3000 scanner with a mouse radiofrequency coil. […]
Image files were exported and analyzed in Horus software. […] The contrast-to-noise ratio of the tumor (CNR) was calculated using the following equation, where σnoise is the standard deviation of intensities from an ROI drawn outside of the mouse body: […]

[7] = 0.1 mmol/kg, 10 min post-injection, n = 6
[8] = 0.1 mmol/kg, 10 min post-injection, n = 3

T1 sequence (P02751 1271-1359 limits assumed): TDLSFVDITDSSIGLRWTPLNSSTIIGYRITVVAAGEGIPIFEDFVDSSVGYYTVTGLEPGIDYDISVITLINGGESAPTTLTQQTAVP

Substance: ZD2-N3-Gd(HP-DO3A) (TVRTSAD; also: conjugated via N3 to Gd(HP-DO3A) contrast agent, end not given here) [MT218, small molecular conjugate of ZD2 peptide to a macrocyclic clinical MRI contrast agent Gd(HP-DO3A)]
- T1 relaxivity compared with Gd(HP-DO3A), in words [1]: higher T1 relaxivity than Gd(HP-DO3A)
- contrast enhancement [2]: superior contrast enhancement
- liver CNR, MT218 vs Gd(HP-DO3A) ([3]; BxPC3-GFP-Luc and PANC-1-GFP-Luc intrapancreatic models): No difference in CNR
- liver CNR, MT218 vs Gd(HP-DO3A) ([3]; Capan-1 flank model): No significant difference in CNR
- non-specific signal enhancement in hepatic tissue ([3]; MRMI with MT218): Minimal non-specific signal enhancement
- binding affinity (in words) (EDB fragment of FN; MT218 to EDB-FN): micromolar affinity; also recorded: moderate binding affinity
- Kd (EDB fragment of FN; NT-647-labeled EDB fragment, 50 mM PBS w/0.05% Tween-20, 25°C): 3.2 ± 0.2 µM
- intratumoral CNR increase (post/pre) [4, 7]: approximately 3.9 fold
- tumor contrast enhancement [4, 7]: substantial contrast enhancement
- tumor signal enhancement, subtraction images [4, 7]: substantial signal enhancement
- MT218 CNR as percent of Gd(HP-DO3A) control ([4]; PANC-1-GFP-Luc intrapancreatic, control Gd(HP-DO3A), p < 0.05): 164%
- CNR relative to clinical agent ([4]; PANC-1-GFP-Luc intrapancreatic, vs Gd(HP-DO3A), p < 0.05): 1.6 times
- tumor CNR increase (post/pre) ([5]; 0.1 mmol/kg, 10 min post-injection (maximum for MT218), n = 3): 5.3 fold
- tumor contrast enhancement [5, 8]: strong contrast enhancement
- tumor enhancement, subtraction images [5, 8]: strong enhancement and clear delineation
- tumor contrast enhancement ([5]; 0.1 mmol/kg, 20 min post-injection, n = 3): decreased
- tumor contrast enhancement ([5]; 0.1 mmol/kg, 30 min post-injection, n = 3): returned to background levels
- MT218 CNR relative to control ([5]; BxPC3-GFP-Luc intrapancreatic, control Gd(HP-DO3A), p < 0.05): 212%
- CNR relative to clinical agent ([5]; BxPC3-GFP-Luc intrapancreatic, vs Gd(HP-DO3A), p < 0.05): 2.1 times
- CNR increase ([5]; MT218 0.1 mmol/kg co-injected with 5-fold excess free ZD2 peptide, n = 3): approximately 2.5 fold
- contrast enhancement, competitive binding experiment ([5]; MT218 0.1 mmol/kg co-injected with 5-fold excess free ZD2 peptide, vs MT218 alone, n = 3): significant reduction of contrast enhancement
- CNR with free ZD2 peptide compared with MT218 alone ([5]; MT218 co-injected with 5-fold free ZD2 peptide, n = 3, p < 0.05): significant decrease in tumor CNR; also recorded: significantly lower
- size of smallest tumor detected / better visualized ([5]; smallest average size / area of tumor nodules, cf. BxPC3 + MT218 ROI in Supplementary Table 1): 6.1 mm^2 and 6.13 mm^2
- kidney CNR, MT218 vs Gd(HP-DO3A) [6]: No significant (n.s, p>0.05) difference in kidney CNR
